Experiments:
Experiment in all cases: Cell growth inhibition, SRB assay, extended panel
Format in all cases: cell-based
[1] = tested on: MDA-MB-231 breast cancer cell line; conditions: Homo sapiens, MDA-MB-231, read-out: GI50 Range MDA-MB-231
Description: Breast cancer and normal cells were seeded at various concentrations, ranging from 1500 to 4000 per 80 μl according to cell growth rate, into 96-well plates 24 hours before compound overlay. Each 10 mM stock solution in 100% DMSO of the compounds was diluted with Opti-MEM I Reduced-Serum Medium (Invitrogen, Canada) to make concentration ranges from 50 nM to 250 μM. 20 μl from each concentration was added to the cells to make the final concentration range from 10 nM to 50 μM. The cells were cultured at 37° C. for 5 days before the Sulforhodamine B (SRB) assay was performed to assess cell survival. SRB is a water-soluble dye that binds to the basic amino acids of cellular proteins. Thus, colorimetric measurement of the bound dye provides an estimate of the total protein mass and is related to cell number. The cells were fixed in situ by gently aspirating off the culture media and adding 50 μl ice-cold 10% Tri-chloroacetic Acid (TCA) per well and incubation at 4° C. for 30-60 min. The plates were washed with tap water five times and allowed to air dry for 5 min. […] Absorbances were read at 570 nm. The cell survival percentage at each compound concentration was calculated over the cell DMSO control, which was growing in the presence of 0.1% DMSO (0.5% in the case of 50 μM compounds). Cell viability GI50 values were calculated using GraphPad PRISM software (GraphPad Software, Inc.).

[2] = tested on: HCT116 p53^−/− colon cancer cell line; conditions: Homo sapiens, HCT-116, read-out: GI50 Range HCT116 p53^−/−
Description: (§1) Breast cancer cells (MCF-7, MDA-MB-468 and HCC1954), colon cancer cells (SW620) and lung cancer cells (A549), together with human mammary epithelial primary cells (HMEC) were seeded (1000 to 4000 per 80 μl per well depending on the cell growth rate) into 96-well plates 24 hours before compound overlay. Compounds were prepared as 10 mM stock solutions in 100% DMSO which were diluted with DMEM (Dulbecco's Modified Eagle's Medium) cell growth Medium (Invitrogen, Canada) containing 10% FBS (Fetal Bovine Serum) to concentrations ranging from 50 nM to 250 μM. Aliquots (20 μl) from each concentration were overlaid to 80 μl of the pre-seeded cells in the 96-plates to make final concentrations of 10 nM to 50 μM. The cells were cultured for 5 days before the Sulforhodamine B (SRB) assay was performed to determine the compound's cell growth inhibition activity.
(§2) Sulforhodamine B (Sigma, Canada) is a water-soluble dye that binds to the basic amino acids of cellular proteins. Thus, colorimetric measurement of the bound dye provides an estimate of the total protein mass that is related to the cell number. The cells are fixed in situ by gently aspirating off the culture media and adding 50 μl ice cold 10% Trichloroacetic Acid (TCA) per well and incubated at 4° C. for 30-60 min. The plates are washed with water five times and allowed to air dry for 5 min. Addition of 50 μl 0.4% (w/v) SRB solution in 1% (v/v) acetic acid to each well and incubatation for […] at RT completes the staining reaction. Following staining, plates are washed four times with 1% acetic acid to remove unbound dye and then allowed to air dry for 5 min. The stain is solubilized with 100 μl of 10 mM Tris pH 10.5 per well. Absorbance is read at 570 nm.
(§3) The percentage (%) of relative growth inhibition was calculated by comparing to DMSO-treated only cells (100%). GI50's were determined for compounds with cytotoxic activity. The GI50 was calculated using GraphPad PRISM software (GraphPad Software, Inc., USA).
(§4) In addition to the cell lines tested as described above, selected compounds have been assayed against an extended panel. These include: breast cancer cell lines (T-47D, MDA-MB-231, Hs578T, 8T-474, SKBr-3 and HCC1954), a lung cancer cell line (H358), brain cancer cell lines (A172, Hs683 and SK-N-SH), colon cancer cell lines (Colo 205, HCT-15, HCT116 p53^+/+ and HCT116 p53^−/−), ovarian cancer cell lines (OVCAR-3, SK-OV-3 and SW626), a melanoma cell line (518A2), a prostate cancer cell line (PC-3) and an immortalized breast cell line (184A1). The SRB assay described above was used to assay test compounds against the extended panel (Table 6).

[3] = tested on: HCT116 p53^+/+ colon cancer cell line; conditions: Homo sapiens, HCT-116, read-out: GI50 Range HCT116 p53^+/+
Description: as §1, §2, §3, §4

[4] = tested on: SK-OV-3 ovarian cancer cell line; conditions: Homo sapiens, SK-OV-3, read-out: GI50 Range SK-OV-3
Description: as §1, §2, §3
(§5) The SRB assay described above was used to assay test compounds against the extended panel (Table 6).

[5] = tested on: SKBr-3 breast cancer cell line; conditions: Homo sapiens, SK-BR-3, read-out: GI50 Range SKBr-3
Description: as §1, §2, §3, §5

[6] = tested on: Hs683 brain cancer cell line; conditions: Homo sapiens, Hs 683, read-out: GI50 Range Hs683
Description: as §1, §2, §3, §5

[7] = tested on: H358 lung cancer cell line; conditions: Homo sapiens, NCI-H358, read-out: GI50 Range H358
Description: as §1, §2, §3, §5

[8] = tested on: A172 brain cancer cell line; conditions: Homo sapiens, A 172, read-out: GI50 Range A172
Description: as §1, §2, §3, §5

[9] = tested on: HCT-15 colon cancer cell line; conditions: Homo sapiens, HCT-15, read-out: GI50 Range HCT-15
Description: as §1, §2, §3, §5

[10] = tested on: T-47D breast cancer cell line; conditions: Homo sapiens, T47D, read-out: GI50 Range T-47D
Description: as §1, §2, §3, §5

[11] = tested on: PC-3 prostate cancer cell line; conditions: read-out: GI50 Range PC-3
Description: as §1, §2, §3, §5

[12] = tested on: 518A2 melanoma cell line; conditions: Homo sapiens, 518A2, read-out: GI50 Range 518A2
Description: as §1, §2, §3, §5

[13] = tested on: 184A1 immortalized breast cell line; conditions: 184A1, read-out: GI50 Range 184A1
Description: as §1, §2, §3, §5

[14] = tested on: Colo 205 colon cancer cell line; conditions: Homo sapiens, COLO 205, read-out: GI50 Range Colo 205
Description: as §1, §2, §3, §5

[15] = tested on: SW626 ovarian cancer cell line; conditions: Homo sapiens, SW626, read-out: GI50 Range SW626
Description: as §1, §2, §3, §5

[16] = tested on: Hs578T breast cancer cell line; conditions: Homo sapiens, Hs-578T, read-out: GI50 Range Hs578T
Description: as §1, §2, §3, §5

[17] = tested on: SK-N-SH brain cancer cell line; conditions: Homo sapiens, read-out: GI50 Range SK-N-SH
Description: as §1, §2, §3, §5

[18] = tested on: BT-474 breast cancer cell line; conditions: Homo sapiens, BT-474, read-out: GI50 Range BT-474
Description: as §1, §2, §3, §5

[19] = tested on: OVCAR-3 ovarian cancer cell line; conditions: Homo sapiens, OVCAR-3, read-out: GI50 Range OVCAR-3
Description: as §1, §2, §3, §5

Measured: GI50

COc1ccc2c(c1)/C(=C\c1ccc3c(/C=C/c4ccc(N5CCN(C)CC5)nc4)n[nH]c3c1)C(=O)N2 [Compound 3]
< 5 µM: all assays above

Source: patent US8933070B2, “Methods of targeting PTEN mutant diseases and compositions therefor” (University Health Network, priority 2010, dated 2015)
